Data reported in ChEMBL document CHEMBL5370693, “Kinases Controlling Stability of the Oncogenic MYCN Protein” (ACS Med Chem Lett, 2023).

What was measured:
[1] = biological target: T1, Phosphatidylinositol 3-kinase C2 domain-containing subunit gamma (Homo sapiens) (UniProt O75747); experiment: Inhibition of PIK3C2G (unknown origin) assessed as remaining activity at 15 uM incubated for 1 hr by KINOMEscan competitive binding assay relative to control
T1 sequence (whole entry): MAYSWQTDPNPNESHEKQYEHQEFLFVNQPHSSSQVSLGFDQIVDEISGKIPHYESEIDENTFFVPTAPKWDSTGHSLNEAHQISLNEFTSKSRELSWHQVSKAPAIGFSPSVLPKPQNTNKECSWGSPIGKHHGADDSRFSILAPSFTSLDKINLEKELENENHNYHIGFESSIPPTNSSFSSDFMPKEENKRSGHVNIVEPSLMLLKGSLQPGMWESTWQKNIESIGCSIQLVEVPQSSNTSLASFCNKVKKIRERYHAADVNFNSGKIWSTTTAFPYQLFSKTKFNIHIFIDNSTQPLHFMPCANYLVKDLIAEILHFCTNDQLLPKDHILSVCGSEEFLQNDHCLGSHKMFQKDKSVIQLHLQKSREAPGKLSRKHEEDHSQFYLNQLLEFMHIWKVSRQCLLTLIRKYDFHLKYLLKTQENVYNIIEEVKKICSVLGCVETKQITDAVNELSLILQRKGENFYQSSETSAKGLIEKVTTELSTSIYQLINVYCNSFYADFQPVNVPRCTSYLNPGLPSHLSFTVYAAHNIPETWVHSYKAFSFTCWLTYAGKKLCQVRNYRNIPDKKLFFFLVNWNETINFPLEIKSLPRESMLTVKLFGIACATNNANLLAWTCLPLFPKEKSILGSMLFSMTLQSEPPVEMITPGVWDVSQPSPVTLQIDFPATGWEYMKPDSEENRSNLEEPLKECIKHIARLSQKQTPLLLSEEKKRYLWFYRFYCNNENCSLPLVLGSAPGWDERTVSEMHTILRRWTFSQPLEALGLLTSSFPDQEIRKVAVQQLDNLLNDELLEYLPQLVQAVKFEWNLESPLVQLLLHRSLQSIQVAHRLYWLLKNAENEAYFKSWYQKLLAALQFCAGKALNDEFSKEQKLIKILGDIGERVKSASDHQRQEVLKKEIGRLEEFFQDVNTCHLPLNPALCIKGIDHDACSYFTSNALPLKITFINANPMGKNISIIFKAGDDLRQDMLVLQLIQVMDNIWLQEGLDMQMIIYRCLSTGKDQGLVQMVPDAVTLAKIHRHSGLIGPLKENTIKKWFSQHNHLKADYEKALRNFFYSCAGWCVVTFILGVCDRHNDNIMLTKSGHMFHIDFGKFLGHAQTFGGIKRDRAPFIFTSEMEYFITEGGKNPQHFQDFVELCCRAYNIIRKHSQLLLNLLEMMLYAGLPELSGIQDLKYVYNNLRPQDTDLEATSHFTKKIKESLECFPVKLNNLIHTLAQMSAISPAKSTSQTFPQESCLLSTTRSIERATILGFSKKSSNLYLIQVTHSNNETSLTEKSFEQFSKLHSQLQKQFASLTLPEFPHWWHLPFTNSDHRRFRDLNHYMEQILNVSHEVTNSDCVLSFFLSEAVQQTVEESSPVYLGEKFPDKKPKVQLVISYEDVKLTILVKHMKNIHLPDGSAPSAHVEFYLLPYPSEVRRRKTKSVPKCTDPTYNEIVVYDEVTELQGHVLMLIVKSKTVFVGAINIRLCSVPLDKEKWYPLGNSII

[2] = biological target: Phosphatidylinositol 4,5-bisphosphate 3-kinase catalytic subunit gamma isoform (Homo sapiens) (UniProt P48736); experiment: Inhibition of PIK3CG (unknown origin) assessed as remaining activity at 15 uM incubated for 1 hr by KINOMEscan competitive binding assay relative to control
[3] = tested on: Phosphatidylinositol 4,5-bisphosphate 3-kinase catalytic subunit alpha isoform (Homo sapiens), P42336 [Q546K]; experiment: Inhibition of PIK3CA Q546K mutant (unknown origin) assessed as remaining activity at 15 uM incubated for 1 hr by KINOMEscan competitive binding assay relative to control
[4] = tested on: Phosphatidylinositol 4,5-bisphosphate 3-kinase catalytic subunit alpha isoform (Homo sapiens), P42336 [M1043I]; experiment: Inhibition of PIK3CA M1043I mutant (unknown origin) assessed as remaining activity at 15 uM incubated for 1 hr by KINOMEscan competitive binding assay relative to control
[5] = biological target: Casein kinase II subunit alpha' (Homo sapiens) (UniProt P19784); experiment: Inhibition of CSNK2A2 (unknown origin) assessed as remaining activity at 15 uM incubated for 1 hr by KINOMEscan competitive binding assay relative to control
[6] = tested on: Phosphatidylinositol 4,5-bisphosphate 3-kinase catalytic subunit alpha isoform (Homo sapiens), P42336 [E545A]; experiment: Inhibition of PIK3CA E545A mutant (unknown origin) assessed as remaining activity at 15 uM incubated for 1 hr by KINOMEscan competitive binding assay relative to control
[7] = biological target: T2, Serine/threonine-protein kinase Chk1 (Homo sapiens) (UniProt O14757); experiment: Inhibition of CHEK1 (unknown origin) assessed as remaining activity at 15 uM incubated for 1 hr by KINOMEscan competitive binding assay relative to control
T2 sequence (whole entry): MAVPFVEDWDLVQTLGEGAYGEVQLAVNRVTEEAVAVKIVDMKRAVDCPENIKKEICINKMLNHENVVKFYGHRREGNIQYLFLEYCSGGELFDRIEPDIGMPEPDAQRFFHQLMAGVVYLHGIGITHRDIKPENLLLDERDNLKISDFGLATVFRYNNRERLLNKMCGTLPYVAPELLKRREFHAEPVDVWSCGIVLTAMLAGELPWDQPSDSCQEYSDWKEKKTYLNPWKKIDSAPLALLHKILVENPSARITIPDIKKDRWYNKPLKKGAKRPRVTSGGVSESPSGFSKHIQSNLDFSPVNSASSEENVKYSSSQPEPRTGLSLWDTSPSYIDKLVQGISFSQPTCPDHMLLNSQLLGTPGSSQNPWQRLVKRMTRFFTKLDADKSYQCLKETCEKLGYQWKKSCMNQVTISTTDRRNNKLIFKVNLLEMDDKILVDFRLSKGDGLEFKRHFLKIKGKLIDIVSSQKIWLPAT

[8] = biological target: Phosphatidylinositol 4,5-bisphosphate 3-kinase catalytic subunit beta isoform (Homo sapiens) (UniProt P42338); experiment: Inhibition of PIK3CB (unknown origin) assessed as remaining activity at 15 uM incubated for 1 hr by KINOMEscan competitive binding assay relative to control
[9] = biological target: Casein kinase II subunit alpha (Homo sapiens) (UniProt P68400); experiment: Inhibition of CSNK2A1 (unknown origin) assessed as remaining activity at 15 uM incubated for 1 hr by KINOMEscan competitive binding assay relative to control
[10] = biological target: Serine/threonine-protein kinase 38-like (Homo sapiens) (UniProt Q9Y2H1); experiment: Inhibition of NDR2 (unknown origin) assessed as remaining activity at 15 uM incubated for 1 hr by KINOMEscan competitive binding assay relative to control

CC(C)CC(=O)Oc1ccc2occ(-c3ccc(O)c(O)c3)c(=O)c2c1
Activity [1]: 57% | Activity [2]: 86% | Activity [3]: 84% | Activity [4]: 85% | Activity [5]: 52% | Activity [6]: 100% | Activity [7]: 88% | Activity [8]: 92% | Activity [9]: 14% | Activity [10]: 48%

CC(C)CCOc1ccc2c(=O)c(-c3ccc(O)c(O)c3)coc2c1
Activity [1]: 75% | Activity [2]: 95% | Activity [3]: 96% | Activity [4]: 77% | Activity [5]: 100% | Activity [6]: 100% | Activity [7]: 71% | Activity [8]: 100% | Activity [9]: 44% | Activity [10]: 17%
